Laboratory results published in the supplement of paper PMC10307832.

Experiments:
Experiment in all cases: relative viability (nuclei count vs DMSO), 5 days (fraction); higher = more cells survive
CUDC-101 + Olaparib = compound: C#Cc1cccc(Nc2ncnc3cc(OC)c(OCCCCCCC(=O)NO)cc23)c1 [CUDC-101] + O=C(c1cc(Cc2n[nH]c(=O)c3ccccc23)ccc1F)N1CCN(C(=O)C2CC2)CC1 [Olaparib] (partner 8 µM)
Method in brief: (§1)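 Values are medians from duplicate plates. Each reflects relative viability, defined as the nuclei count of treated wells over that of vehicle wells. Lung cancer cell lines in 1536-well plates were pin-tool dosed one day after seeding with one drug alone or with a fixed anchor-drug dose plus five library-drug doses (not always all listed) in √10 steps, then fixed, stained and imaged at 4× after 5 days.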

NVP-TAE684 + Pictilisib = compound: COc1cc(N2CCC(N3CCN(C)CC3)CC2)ccc1Nc1ncc(Cl)c(Nc2ccccc2S(=O)(=O)C(C)C)n1 [NVP-TAE684] + CS(=O)(=O)N1CCN(Cc2cc3nc(-c4cccc5[nH]ncc45)nc(N4CCOCC4)c3s2)CC1 [Pictilisib] (partner 1 µM)
Method in brief: as §1

NVP-TAE684 + AZD7762 = compound: COc1cc(N2CCC(N3CCN(C)CC3)CC2)ccc1Nc1ncc(Cl)c(Nc2ccccc2S(=O)(=O)C(C)C)n1 [NVP-TAE684] + NC(=O)Nc1cc(-c2cccc(F)c2)sc1C(=O)N[C@H]1CCCNC1 [AZD7762] (partner 0.2 µM)
Method in brief: as §1

Vandetanib + Olaparib = compound: COc1cc2/c(=N/c3ccc(Br)cc3F)nc[nH]c2cc1OCC1CCN(C)CC1 [Vandetanib] + O=C(c1cc(Cc2n[nH]c(=O)c3ccccc23)ccc1F)N1CCN(C(=O)C2CC2)CC1 [Olaparib] (partner 8 µM)
Method in brief: as §1

Cell Line | relative viability (CUDC-101 + Olaparib; first compound 0.01 µM) | relative viability (CUDC-101 + Olaparib; first compound 0.03162 µM) | relative viability (CUDC-101 + Olaparib; first compound 0.1 µM) | relative viability (CUDC-101 + Olaparib; first compound 0.3162 µM) | relative viability (CUDC-101 + Olaparib; first compound 1 µM) | relative viability (NVP-TAE684 + Pictilisib; first compound 0.2 µM) | relative viability (NVP-TAE684 + Pictilisib; first compound 0.6325 µM) | relative viability (NVP-TAE684 + Pictilisib; first compound 2 µM) | relative viability (NVP-TAE684 + AZD7762; first compound 0.2 µM) | relative viability (NVP-TAE684 + AZD7762; first compound 0.6325 µM) | relative viability (NVP-TAE684 + AZD7762; first compound 2 µM) | relative viability (Vandetanib + Olaparib; first compound 0.02 µM) | relative viability (Vandetanib + Olaparib; first compound 0.06325 µM) | relative viability (Vandetanib + Olaparib; first compound 0.2 µM) | relative viability (Vandetanib + Olaparib; first compound 0.6325 µM) | relative viability (Vandetanib + Olaparib; first compound 2 µM)
LK-2 | 0.821 | 0.754 | 0.597 | 0.495 | 0.281 | 0.649 | 0.472 | 0.343 | 0.49 | 0.268 | 0.129 | 0.846 | 0.71 | 0.724 | 0.72 | 0.669
LU99A | 0.259 | 0.24 | 0.233 | 0.192 | 0.105 | 0.288 | 0.362 | 0.249 | 0.342 | 0.402 | 0.265 | 0.251 | 0.301 | 0.173 | 0.209 | 0.272
NCI-H322M | 0.789 | 0.674 | 0.771 | 0.692 | 0.594 | 0.43 | 0.463 | 0.388 | 0.553 | 0.599 | 0.453 | 0.76 | 0.709 | 0.718 | 0.681 | 0.585
NCI-H1793 | 0.857 | 0.753 | 0.888 | 0.944 | 0.549 | 0.426 | 0.326 | 0.519 | 0.479 | 0.247 | 0.169 | 0.86 | 0.803 | 0.74 | 0.658 | 0.577
HARA | 1 | 0.844 | – | 0.418 | 0.154 | 0.459 | 0.238 | 0.275 | 0.305 | 0.286 | 0.258 | 0.624 | 0.821 | 0.681 | 0.867 | 0.883
LXF-289 | 1.01 | 1.14 | 1.06 | 1.08 | 0.599 | 0.717 | 0.812 | 0.578 | 0.939 | 1.11 | 1.07 | 1.01 | 1.05 | 0.682 | 1 | 1
201T | 0.867 | 0.817 | 0.806 | 0.8 | 0.793 | 0.699 | 0.676 | 0.652 | 0.669 | 0.79 | 0.521 | 0.79 | 0.829 | 0.796 | 0.791 | 0.817
LCLC-103H | 0.79 | 0.722 | 0.731 | 0.719 | 0.627 | 0.71 | 0.567 | 0.451 | 0.877 | 0.771 | 0.664 | 0.729 | 0.657 | 0.529 | 0.698 | 0.707
RERF-LC-KJ | 0.939 | 0.917 | 0.92 | 0.818 | 0.699 | 0.613 | 0.484 | 0.494 | 0.97 | 0.985 | 0.729 | 0.891 | 0.959 | 0.898 | 0.75 | 0.83
NCI-H1975 | 0.853 | 0.737 | 0.818 | 0.859 | 0.745 | 0.281 | 0.231 | 0.191 | 0.694 | 0.649 | 0.381 | 0.807 | 0.733 | 0.795 | 0.684 | 0.716
PC-3 [JPC-3] | 1.09 | 0.959 | 0.821 | 0.515 | 0.479 | 0.697 | 0.684 | 0.65 | 0.821 | 0.673 | 0.54 | 1.06 | 0.961 | 1.06 | 0.747 | 0.557
EPLC-272H | 0.885 | 0.703 | 0.596 | 0.448 | 0.365 | 0.285 | – | 0.184 | 0.175 | 0.175 | 0.208 | 0.969 | 0.526 | 1.19 | 0.854 | 0.49
